Some results are limits rather than exact numbers.

The target of one assay is T1, recombinant hMAO-A (Homo sapiens, UniProt P21397).
T1 sequence (P21397 1-527): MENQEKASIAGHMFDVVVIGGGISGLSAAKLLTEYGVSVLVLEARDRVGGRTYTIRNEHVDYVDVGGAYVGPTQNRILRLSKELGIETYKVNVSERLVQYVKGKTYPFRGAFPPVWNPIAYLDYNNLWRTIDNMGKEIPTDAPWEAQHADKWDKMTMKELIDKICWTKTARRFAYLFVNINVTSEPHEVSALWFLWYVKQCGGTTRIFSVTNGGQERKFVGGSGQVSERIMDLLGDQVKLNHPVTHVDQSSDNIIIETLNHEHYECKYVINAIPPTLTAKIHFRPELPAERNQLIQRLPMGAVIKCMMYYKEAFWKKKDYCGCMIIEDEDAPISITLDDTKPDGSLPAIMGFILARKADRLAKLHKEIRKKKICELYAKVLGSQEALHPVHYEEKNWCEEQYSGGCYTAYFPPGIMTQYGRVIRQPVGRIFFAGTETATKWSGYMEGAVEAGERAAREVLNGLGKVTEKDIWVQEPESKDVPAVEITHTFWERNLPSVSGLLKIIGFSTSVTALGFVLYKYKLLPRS
Nature of the assay: MAO-A inhibition assay. Type of assay: biochemical. Particulars: read-out: MAO inhibition MAO-A %. The procedure: For MAO inhibition studies, the enzyme solution (0.5 U/mL recombinant hMAO-A or 1.5 U/mL recombinant hMAO-B) was incubated with an inhibitor solution containing 10 µM of the compounds for 30 min at 37 °C. Next, horseradish peroxidase (200 U/mL), Ampliflu Red (20 mM) and tyramine hydrochloride (100 mM) (Sigma-Aldrich) were added, and absorbance was measured at 570 nm every 5 min for 30 min. The percentage of inhibition was calculated from the absorbance values.

For a further assay, the system named is U87 glioblastoma cells. Nature of the assay: MTT cell viability, U87. Type of assay: cell-based. Particulars: Homo sapiens, 72 h, read-out: IC50 U87 (GBM). The procedure:
U87-MG, U251-MG and NCI-H1299 cells were purchased from ATCC, while MKN45 was obtained from the Leibniz Institute DSMZ-German Collection of Microorganisms and Cell Cultures and the RWP1 cell line was kindly provided by Dr. Francisco Real. Cells were cultured in DMEM or RPMI (Gibco, Waltham, MA, USA) supplemented with 10% FBS, 100 U/mL penicillin and streptomycin and 2 mM L-Glutamine. Patient-derived glioma neural stem cells (GNS166 and GNS179) were kindly provided by Dr. Steve Pollard. These cells were cultured in adhesion plates treated with laminin A in DMEM/F12 media (Gibco) supplemented with N2 (Gibco), B27 (Gibco), D-(+)-Glucose solution 45% (Sigma-Aldrich, Burlington, MA, USA), basic Fibroblast Growth Factor (Gibco) and epidermal growth factor (Sigma-Aldrich). Normal human astrocytes (NHAs) were purchased from ScienCell and cultured using an astrocyte medium kit (ScienCell, San Diego, CA, USA) supplemented with FBS and Astrocyte Growth Supplement (AGS). All cells were maintained at standard conditions of 37 °C, 95% humidity, 21% O2 and 5% CO2, and cultures were regularly tested for Mycoplasma.
Cells were seeded in 96-well plates at a density of 1.5 × 10^3 or 5 × 10^3 cells/well (conventional cell lines or GNS and NHAs, respectively) and incubated overnight. Next, cells were treated with increasing concentrations of the compounds, and after 72 h, they were incubated for 3.5 h with MTT. Then, absorbance at 570 nm was measured. GraphPad Prism software version 10.4.1 was used to calculate the IC50 values.

Assay [1] has as its target T2, BChE (Homo sapiens, UniProt P06276). Nature of the assay: BChE inhibition, Ellman's colorimetric method. Type of assay: biochemical. Particulars: read-out: ChE inhibition BChE %.
Assay [2] has as its target T2, BChE. Nature of the assay: BChE inhibition, Ellman's colorimetric method. Type of assay: biochemical. Particulars: read-out: ChE inhibition BChE %. Here is the method: The inhibitory capacity of the compounds on ChEs was assessed using Ellman’s colorimetric method. Briefly, an inhibitor solution containing 10 µM of the MSMs and 0.3 mM DTNB was incubated for 20 min with the enzyme solution ([…]) at 37 °C. […] Inhibition percentages were calculated from these values. […] Further, enzyme kinetics were studied using different substrate and inhibitor concentrations. Results were represented in a Lineweaver–Burk plot using GraphPad Prism, and the constant of inhibition (Ki) was estimated from the point at which the line cuts the x-axis in the secondary plot.
This is another data set of the same source.

In assay [3] the test system is GNS166, GNS179, U87 and U251 cells. Nature of the assay: Immunofluorescence of Ki67, p-H3 and cleaved caspase-3. Type of assay: cell-based, human. Particulars: 1, 3 and 5 μM, 48 h. Here is the method: For immunofluorescence assays, cells were seeded at a density of 2 × 10^4 cells/well in 8-well immunofluorescence chambers (LabTek Thermo, Waltham, MA, USA) and incubated overnight. Then, cells were treated for 48 h and fixed with 4% PFA. Primary antibodies against phospho-histone H3 (p-H3) (Abcam), cleaved caspase-3 (Casp3) (R&D Systems, Minneapolis, MN, USA) and Ki67 (Abcam) and secondary antibodies Alexa Fluor anti-mouse and anti-rabbit (Invitrogen, Carlsbad, CA, USA) were used. Nuclei were stained with DAPI (Sigma-Aldrich). Pictures were taken with an Axio Observer 7 epifluorescence microscope, and Qupath version 0.6.0 was used for quantifications. Percentages of Ki67-, p-H3- and Casp3-positive cells were calculated, taking into account the number of nuclei.

Another assay concerns HDAC6. Nature of the assay: Western blot of acetylated α-tubulin (HDAC6 target). Particulars: GNS166 and U87 cells. Type of assay: cell-based, human. Here is the method:
Sodium dodecyl sulfate–polyacrylamide gel electrophoresis was performed. Primary antibodies against HDAC1 (Abcam, Cambridge, UK) and HDAC6 (Cell Signaling, Dancers, MA, USA) and their main targets, acetylated H3 (Cell Signaling) and acetylated α-tubulin (Abcam), were used; acetylated lysine (Cell Signaling) and β-actin (Sigma-Aldrich) were used as endogenous controls. Secondary antibodies conjugated to horseradish peroxidase were anti-rabbit or anti-mouse (Cell Signaling). Proteins were detected using the iBright imaging system and NOVEX ECL Chemi Substrate or SuperSignal West Femto Maximum Sensitivity Substrate (ThermoFisher, Waltham, MA, USA).

T2 sequence (P06276 29-602, species assumed): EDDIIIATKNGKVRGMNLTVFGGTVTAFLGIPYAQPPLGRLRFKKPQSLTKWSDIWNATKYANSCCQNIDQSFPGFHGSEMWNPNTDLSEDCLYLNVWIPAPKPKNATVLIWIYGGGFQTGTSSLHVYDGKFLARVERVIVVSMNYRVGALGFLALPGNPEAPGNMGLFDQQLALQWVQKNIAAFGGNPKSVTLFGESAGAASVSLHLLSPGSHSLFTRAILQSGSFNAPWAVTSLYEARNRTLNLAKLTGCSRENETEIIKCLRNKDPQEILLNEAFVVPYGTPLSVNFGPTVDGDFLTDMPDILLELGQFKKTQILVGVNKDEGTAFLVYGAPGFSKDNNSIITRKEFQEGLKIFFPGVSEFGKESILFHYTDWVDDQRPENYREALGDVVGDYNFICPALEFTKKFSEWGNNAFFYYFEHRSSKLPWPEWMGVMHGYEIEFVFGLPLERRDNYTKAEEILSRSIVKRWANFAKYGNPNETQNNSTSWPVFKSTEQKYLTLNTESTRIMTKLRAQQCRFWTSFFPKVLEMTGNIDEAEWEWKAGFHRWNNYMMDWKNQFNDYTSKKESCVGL

Take `C#CCN(C)CCCOc1ccc(Cl)cc1Cl` [Clorgiline, reference compound]: on recombinant hMAO-A, the inhibition at 1 µM stood at 100% and the inhibition at 10 µM was 98%.
For the compound `CCCN(CCC)NC(=O)c1ccc(S(=O)(=O)n2ccc3cc(OC)ccc32)cc1` [FRB21], the IC50 in the assay with U87 glioblastoma cells is over 100 µM.
Same read-out and setting: the result for `CCCNNC(=O)c1ccc(S(=O)(=O)n2ccc3cc(OC)ccc32)cc1` [FRB24] reads 7.1 µM.
In the case of `CCN(C)C(=O)Oc1cccc([C@H](C)N(C)C)c1` [Rivastigmine, reference compound], the inhibition at 1 µM at BChE [1] was 100%. Also, the inhibition at 10 µM at BChE [2] was found to be 100%.
Regarding `CN1CCc2c(c3ccccc3n2Cc2ccc(C(=O)NO)cc2)C1` [Tubastatin A], the “cleaved caspase-3-positive cells” value in assay [3] is “slightly increased”. Moreover, in the assay on HDAC6, the “levels of acetyl-α-tubulin” value is “higher levels of acetylated α-tubulin than the FRBs”.

These data come from article PMC12736535, “Generation and Characterization of Novel Contilisant+Tubastatin a Multitarget Small Molecules Against Glioblastoma” (Pharmaceutics, 2025).
